Measured values published in ChEMBL document CHEMBL3351597, “Synthesis and activity of new triphenylphosphonium derivatives of betulin and betulinic acid against Schistosoma mansoni in vitro and in vivo” (Bioorg Med Chem, 2014).
The source made the active and inactive calls. The calls are words filed in the database; no cut-off is given here.

Assays:
[1] = system: Schistosoma mansoni; assay: Antischistosomal activity against newly transformed Schistosoma mansoni assessed as decrease in viability after 72 hrs; assay type: functional, organism-based
[2] = system: L6; assay: Cytotoxicity against rat L6 cells after 24 hrs by Resazurin dye; assay type: cell-based; settings: L6, 24 h
[3] = system: Schistosoma mansoni; assay: Antischistosomal activity against newly transformed Schistosoma mansoni assessed as death at 8.33 microg/ml after 72 hrs; assay type: functional, organism-based
[4] = system: Schistosoma mansoni; assay: Antischistosomal activity against newly transformed Schistosoma mansoni assessed as death at 2.78 microg/ml after 72 hrs; assay type: functional, organism-based
[5] = system: Schistosoma mansoni; assay: Antischistosomal activity against Schistosoma mansoni infected in NMRI mouse assessed as reduction of female worm burden at 400 mg/kg, po treated after 49 days of infection measured after 21 days post treatment; assay type: functional
[6] = system: Schistosoma mansoni; assay: Antischistosomal activity against Schistosoma mansoni infected in NMRI mouse assessed as mouse cured at 400 mg/kg, po treated after 49 days of infection measured after 21 days post treatment; assay type: functional, organism-based; design: dose 400 mg/kg
[7] = system: Schistosoma mansoni; assay: Antischistosomal activity against Schistosoma mansoni infected in NMRI mouse assessed as reduction of total worm burden at 400 mg/kg, po treated after 49 days of infection measured after 21 days post treatment; assay type: functional

Row | IC50 [1] [µg/mL] | Structure (SMILES) | Activity [1] | Activity [3] | other results
1 |  | COC(=O)[C@]12CC[C@@H](C(C)C)[C@@H]1[C@H]1CC[C@@H]3[C@@]4(C)C[C@H](CCC[P+](c5ccccc5)(c5ccccc5)c5ccccc5)[C@@H](O)C(C)(C)[C@@H]4CC[C@@]3(C)[C@]1(C)CC2 | Active |  | 
2 |  | CC(=O)O[C@H]1[C@@H](CCC[P+](c2ccccc2)(c2ccccc2)c2ccccc2)C[C@]2(C)[C@H]3CC[C@@H]4[C@H]5[C@H](C(C)C)CC[C@]5(C(=O)O)CC[C@@]4(C)[C@]3(C)CC[C@H]2C1(C)C | Active |  | 
3 | 6.35 | COC(=O)[C@]12CC[C@@H](C(C)CI)[C@@H]1[C@H]1CC[C@@H]3[C@@]4(C)C[C@H](CCC[P+](c5ccccc5)(c5ccccc5)c5ccccc5)[C@H](OC(C)=O)C(C)(C)[C@@H]4CC[C@@]3(C)[C@]1(C)CC2.[I-] (stereo partly drawn) |  |  | IC50 [2]: 1.65 µg/mL
4 | 1.46 | COC(=O)[C@]12CC[C@@H](C(C)C)[C@@H]1[C@H]1CC[C@@H]3[C@@]4(C)C[C@H](CCC[P+](c5ccccc5)(c5ccccc5)c5ccccc5)[C@H](OC(C)=O)C(C)(C)[C@@H]4CC[C@@]3(C)[C@]1(C)CC2.[Br-] |  | Active | 
5 | 1.37 | COC(=O)[C@]12CC[C@@H](C(C)C)[C@@H]1[C@H]1CC[C@@H]3[C@@]4(C)C[C@H](CCC[P+](c5ccccc5)(c5ccccc5)c5ccccc5)[C@@H](OC(C)=O)C(C)(C)[C@@H]4CC[C@@]3(C)[C@]1(C)CC2.[Br-] |  | Active | 
6 |  | COC(=O)[C@]12CC[C@@H](C(C)C)[C@@H]1[C@H]1CC[C@@H]3[C@@]4(C)C[C@H](CCC[P+](c5ccccc5)(c5ccccc5)c5ccccc5)[C@H](O)C(C)(C)[C@@H]4CC[C@@]3(C)[C@]1(C)CC2 | Active |  | 
7 |  | CC(=O)O[C@H]1[C@@H](CCC[P+](c2ccccc2)(c2ccccc2)c2ccccc2)C[C@]2(C)[C@H]3CC[C@@H]4[C@H]5[C@H](C(C)C)CC[C@]5(C(=O)OCc5ccccc5)CC[C@@]4(C)[C@]3(C)CC[C@H]2C1(C)C | Active |  | 
8 | 0.64 | C=C(C[P+](c1ccccc1)(c1ccccc1)c1ccccc1)[C@@H]1CC[C@]2(COC(C)=O)CC[C@]3(C)[C@H](CC[C@@H]4[C@@]5(C)CC[C@H](OC(C)=O)C(C)(C)[C@@H]5CC[C@]43C)[C@@H]12.[Br-] |  | Active | Activity [4]: Active; inhibition in vivo at 400 mg/kg [5]: 20.3%; Activity [6]: inactive; IC50 [2]: 0.64 µg/mL; inhibition in vivo at 400 mg/kg [7]: 22.2%
9 | 0.76 | C=C(C[P+](c1ccccc1)(c1ccccc1)c1ccccc1)[C@@H]1CC[C@]2(C(=O)OC)CC[C@]3(C)[C@H](CC[C@@H]4[C@@]5(C)CC[C@H](OC(C)=O)C(C)(C)[C@@H]5CC[C@]43C)[C@@H]12.[Br-] |  | Active | Activity [4]: Active; inhibition in vivo at 400 mg/kg [5]: 24.8%; Activity [6]: inactive; inhibition in vivo at 400 mg/kg [7]: 21.9%
